Legend:
[1] = tested on: primary human hepatocytes (PHH); parameters: method as in PMID 35594709; settings: 100 µM; cited from earlier work
[2] = molecular target: T1, Human serum albumin (HSA) (Homo sapiens, UniProt P02768); settings: same experimental model, earlier study; cited from earlier work
T1 construct: purchased Merck (Darmstadt, Germany) A1653

CYP3A4 = CYP3A4 (Homo sapiens, UniProt P08684); assay: cell-based P450-Glo CYP3A4 activity assay in PHHs; assay type: in vitro ADME; parameters: human hepatic microsomes (Gibco, Biocenter, Szeged, Hungary); tissue Gibco (Biocenter, Szeged, Hungary); host or cells: human liver microsomes; settings: 100 µM, 24 h
CYP3A4, sequence (P08684 whole entry): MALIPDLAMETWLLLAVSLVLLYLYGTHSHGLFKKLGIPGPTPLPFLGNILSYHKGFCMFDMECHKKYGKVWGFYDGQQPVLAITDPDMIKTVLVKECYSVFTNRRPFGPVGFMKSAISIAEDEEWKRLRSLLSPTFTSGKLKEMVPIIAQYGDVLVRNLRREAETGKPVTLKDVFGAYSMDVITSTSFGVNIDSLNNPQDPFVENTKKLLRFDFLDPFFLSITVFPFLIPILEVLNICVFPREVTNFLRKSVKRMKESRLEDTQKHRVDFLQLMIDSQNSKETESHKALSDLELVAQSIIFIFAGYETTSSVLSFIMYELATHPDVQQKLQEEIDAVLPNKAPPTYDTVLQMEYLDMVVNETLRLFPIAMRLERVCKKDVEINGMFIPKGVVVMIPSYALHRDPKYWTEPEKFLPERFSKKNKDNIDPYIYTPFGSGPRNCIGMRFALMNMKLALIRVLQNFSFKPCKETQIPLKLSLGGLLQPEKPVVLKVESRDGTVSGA
Experimental: To investigate the effects of inhibitor MI-2415 on CYP3A4 activities, a P450-Glo CYP450 assay (Promega, Madison, WI, USA) was used. […] This luminescent method involves adding a cell-permeable Luciferin-IPA at 3 µM, which was used in 300 µL phenol-red free Williams’ Medium E in each well in the CYP3A4 assay with an incubation time of 1 h. The luminescence activity of the product in the presence of the luciferin detection reagent was proportional to the CYP activity. For the microsomal CYP3A4 assay of inhibitors MI-1851 and MI-2415 at 25, 50, and 100 µM (n = 3), BioVision CYP assays (BioVision, Inc., Kampenhout, Belgium) were used according to the manufacturer’s instructions. The protein content of human hepatic microsomes (Gibco, Biocenter, Szeged, Hungary) was determined by the bicinchoninic acid protein assay kit (Pierce BCA kit, Thermo Fisher Scientific, Waltham, MA, USA) and a 100 µg/well protein was used in each study. […] A Victor X2 2030 fluorescence spectrometer (Perkin Elmer, Waltham, MA, USA) was used to detect the fluorescence intensities of the microsomal CYP3A4 function at wavelengths of λex/em = 535/587 nm and it was also applied to detect the luminescence signals of the cell-based CYP3A4 activity assay.

[3] = tested on: primary human hepatocytes (PHH); assay: DCFH-DA intracellular ROS assay in primary human hepatocytes; assay type: cell-based; settings: 50 µM and 100 µM, 24 h
Experimental: (§1) PHHs were purchased from Primacyt Cell Culture Technology GmbH (Schwerin, Germany). Hepatocytes were thawed using hepatocyte recovery medium (Primacyt, Schwerin, Germany) and cells were centrifuged (10 min, 100× g, 20 °C) to remove supernatants. Cells were incubated with 5% FBS-containing plating medium for 6 h, then with FBS-free maintenance medium at 37 °C with 5% CO2 (both media were obtained from Primacyt, Schwerin, Germany) on Matrigel-coated membrane inserts (Costar Transwell-COL PTFE permeable supports, 6.5 mm inserts, 0.4 µm pore size, 24-well plate, Corning Incorporated, Kennebunk, ME, USA) for the CCK-8 and Amplex Red procedures. Maintenance medium without FBS was replaced every 24 h and the cells were incubated.
The ability of inhibitors MI-1851 and MI-2415 to induce oxidative stress (ROS) within IPEC-J2 as well as of compound MI-2415 within PHHs was investigated with 2,7-dichloro-dihydro-fluorescein diacetate (DCFH2-DA). DCFH2-DA is a non-fluorescent compound that can passively diffuse across cell membranes due to its lipophilic nature. […] A Victor X2 2030 (Perkin Elmer, Waltham, MA, USA) was used to determine the fluorescence values of the samples (excitation wavelength: 485 nm, emission wavelength: 535 nm), which are directly proportional to the ROS generation.

[4] = molecular target: T1, Human serum albumin (HSA); assay: fluorescence quenching of human serum albumin; assay type: binding; settings: HSA 2 μM, ligand 1-10 μM, PBS pH 7.4, λex 295 nm
Experimental: Human serum albumin (HSA) (product code: A1653) and α1-acid glycoprotein (AGP) (product code: G9885) were purchased from Merck (Darmstadt, Germany) and used as received. Fluorescence emission spectra were recorded using a Hitachi F-4500 fluorometer (Tokyo, Japan), while absorption spectra were collected by employing a Hitachi U-3900 UV–Vis spectrophotometer (Tokyo, Japan). Before the evaluation of fluorescence data, the inner-filter effects of MI-1851 and MI-2415 were corrected based on the following equation [23, 24]:(1) Icor=Iobs×e^(Aex+Aem)/2 where Icor and Iobs are the corrected and observed emission intensities, respectively; and Aex and Aem are the absorbance of the MI compounds tested at the excitation and emission wavelengths used, respectively.
To examine the potential interaction of inhibitor MI-2415 with HSA, increasing levels of the ligand (final concentrations: 0, 1, 2, 3, 4, 7, and 10 μM) were added to a standard amount of the protein (2 μM) in PBS (pH 7.4), and then the emission spectra were recorded (λex = 295 nm, λem = 340 nm). Furthermore, the quenching effects of inhibitors MI-1851 and MI-2415 (both 0, 0.25, 0.5, 1, 1.5, 2, and 2.5 μM) were also tested on the emission signal of AGP (2 μM) in PBS (λex = 285 nm, λem = 337 nm).

[5] = tested on: primary human hepatocytes (PHH); assay: Amplex Red extracellular H2O2 assay in primary human hepatocytes; assay type: cell-based; settings: 50 µM and 100 µM, 24 h
Experimental: as §1
To evaluate the cellular responses of IPEC-J2 to the inhibitors MI-1851 and MI-2415, and those of PHHs to MI-2415, at different concentration levels, the Amplex Red hydrogen peroxide assay kit (Invitrogen, Molecular Probes, Budapest, Hungary) in combination with horseradish peroxidase has been used. In the presence of hydrogen peroxide (in 1:1 stoichiometry), Amplex Red produces a red fluorescent oxidation product, resorufin. The IPEC-J2 cells and PHHs were treated for 24 h with the inhibitor(s) at different concentration levels (50 and 100 μM). […]

T1 sequence (P02768 25-609): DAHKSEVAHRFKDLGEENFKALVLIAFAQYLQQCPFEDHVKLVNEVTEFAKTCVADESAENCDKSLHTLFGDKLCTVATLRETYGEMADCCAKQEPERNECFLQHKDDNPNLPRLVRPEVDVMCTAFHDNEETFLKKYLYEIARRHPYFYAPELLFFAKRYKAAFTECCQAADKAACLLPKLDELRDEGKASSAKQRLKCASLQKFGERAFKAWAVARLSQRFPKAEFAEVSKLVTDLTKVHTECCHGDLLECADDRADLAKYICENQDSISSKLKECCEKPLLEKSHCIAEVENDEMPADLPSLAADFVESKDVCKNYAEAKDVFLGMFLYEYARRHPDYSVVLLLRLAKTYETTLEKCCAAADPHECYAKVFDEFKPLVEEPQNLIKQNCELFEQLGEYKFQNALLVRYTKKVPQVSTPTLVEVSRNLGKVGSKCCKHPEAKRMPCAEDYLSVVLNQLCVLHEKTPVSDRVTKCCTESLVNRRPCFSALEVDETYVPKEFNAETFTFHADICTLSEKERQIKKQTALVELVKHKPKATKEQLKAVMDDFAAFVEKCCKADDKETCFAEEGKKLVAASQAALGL

| Compound | extracellular hydrogen peroxide production in PHHs [1] | effect on emission signal of HSA [2] | CYP3A4 activity in PHHs (CYP3A4) | intracellular ROS formation in PHHs [3] | effect on emission intensity of HSA at 340 nm [4] | extracellular H2O2 production in PHHs [5] |
| --- | --- | --- | --- | --- | --- | --- |
| CC(C)(C)[C@H](NC(=O)[C@H](CCONC(=N)N)NC(=O)Cc1ccc(CNC(=N)N)cc1)C(=O)N[C@@H](CCONC(=N)N)C(=O)NCc1ccc(C(=N)N)cc1 [MI-1851] | lacking any significant effect | did not affect the emission signal of HSA |  |  |  |  |
| CC(C)(C)[C@H](NC(=O)[C@H](CCONC(=N)N)NC(=O)Cc1ccc(CNC(=N)N)cc1)C(=O)N[C@@H](CCONC(=N)N)C(=O)NCc1ccc2c(c1)CN=C2N [MI-2415] |  |  | significantly reduced | did not cause a redox imbalance | did not influence the emission intensity of HSA | did not cause a redox imbalance |

— article PMC11444200, “In Vitro Evaluation of Antipseudomonal Activity and Safety Profile of Peptidomimetic Furin Inhibitors” (Biomedicines, 2024)
